For orientation: CC50 means the concentration at which the toxic effect on the cells reaches its halfway point.

This note sets out measurements from ChEMBL document CHEMBL4118188, “A small diversity library of α-methyl amide analogs of sulindac for probing anticancer structure-activity relationships” (Bioorg Med Chem Lett, 2018).

Bounds are passed on as bounds.

One assay has as its system HT-29. In words: Growth inhibition of human HT-29 cells measured after 72 hrs by Celltiter-Glo reagent based assay. It counts as functional. The settings on record: HT-29, 72 h. In general terms: ATP-based viability assays read luminescence as a measure of living cells.
Compound `CC1=C(C(C)C(=O)NCCN2CCNCC2)c2cc(F)ccc2/C1=C\c1ccc([S+](C)[O-])cc1` (centres undefined) came in with a 50% cytotoxic concentration (CC50) greater than 50 µM.
`CC1=C(C(C)C(=O)NCCCN(C)C)c2cc(F)ccc2/C1=C\c1ccc([S+](C)[O-])cc1` (centres undefined) had a CC50 of 22.5 µM.
Still for that read-out and setting: next, `CCN(CC)CCN(C)C(=O)C(C)C1=C(C)/C(=C/c2ccc([S+](C)[O-])cc2)c2ccc(F)cc21` (centres undefined): 5.83 µM; `CCN(CCN(C)C)C(=O)C(C)C1=C(C)/C(=C/c2ccc([S+](C)[O-])cc2)c2ccc(F)cc21` (centres undefined): 9.51 µM.
As to `CC1=C(C(C)C(=O)N(C)CCN(C)C(=O)[C@@H](N)C(C)C)c2cc(F)ccc2/C1=C\c1ccc([S+](C)[O-])cc1` (some centres undefined), half-maximal cytotoxicity (CC50) was put at 26 µM.
Take `CC1=C(C(C)C(=O)N2CCN(c3ccncc3)CC2)c2cc(F)ccc2/C1=C\c1ccc([S+](C)[O-])cc1` (centres undefined): half-maximal cytotoxicity (CC50) was put at 4.99 µM.
In the case of `CC1=C(C(C)C(=O)N2CCN(CCCN(C)C)CC2)c2cc(F)ccc2/C1=C\c1ccc([S+](C)[O-])cc1` (centres undefined), half-maximal cytotoxicity (CC50) was put at 32 µM.
Compound `COc1cc(/C=C2/C(C)=C(C(C)C(=O)NCc3ccco3)c3cc(F)ccc32)cc(OC)c1OC` (centres undefined) showed a CC50 of 2.88 µM.
`CCN1CCC[C@H]1CNC(=O)C(C)C1=C(C)/C(=C/c2ccc([S+](C)[O-])cc2)c2ccc(F)cc21` (some centres undefined): the half-maximal cytotoxic concentration (CC50) amounted to 9.35 µM.
Consider `CC1=C(C(C)C(=O)N(C)CCCN(C)C)c2cc(F)ccc2/C1=C\c1ccc([S+](C)[O-])cc1` (centres undefined), for which it took 16.6 µM to reach half-maximal cytotoxicity (CC50).
Same read-out and setting: next, `CCN(CC)CCN(CC)C(=O)C(C)C1=C(C)/C(=C/c2ccc([S+](C)[O-])cc2)c2ccc(F)cc21` (centres undefined): 4.45 µM; `CC1=C(C(C)C(=O)N(CCCNC(C)C)C(C)C)c2cc(F)ccc2/C1=C\c1ccc([S+](C)[O-])cc1` (centres undefined): 7.13 µM; `CC1=C(C(C)C(=O)N(C)CCN(C)C(=O)[C@@H]2CCCN2)c2cc(F)ccc2/C1=C\c1ccc([S+](C)[O-])cc1` (some centres undefined): 20.1 µM.
With `CCN(CC)CCNC(=O)C(C)C1=C(C)/C(=C/c2ccc([S+](C)[O-])cc2)c2ccc(F)cc21` (centres undefined), the half-maximal cytotoxic concentration (CC50) is 11.1 µM.
In turn, `CC1=C(C(C)C(=O)N(CCNC(C)C)C(C)C)c2cc(F)ccc2/C1=C\c1ccc([S+](C)[O-])cc1` (centres undefined) had a CC50 of 8.06 µM.
The compound `CC1=C(C(C)C(=O)N2CCC(N3CCCCC3)CC2)c2cc(F)ccc2/C1=C\c1ccc([S+](C)[O-])cc1` (centres undefined) gave a CC50 of 48.4 µM.
`CCNCCN(CC)C(=O)C(C)C1=C(C)/C(=C/c2ccc([S+](C)[O-])cc2)c2ccc(F)cc21` (centres undefined) returned a CC50 of 9.99 µM.
Consider `CSc1ccc(/C=C2/C(C)=C(C(C)C(=O)N(C)CCN(C)C(=O)C3CCCN3)c3cc(F)ccc32)cc1` (single isomer, unassigned), for which the midpoint of cytotoxicity, the CC50, lay at 2.06 µM.

Another assay has as its system MDA-MB-231. As to the kind of experiment: Growth inhibition of human MDA-MB-231 cells measured after 96 hrs by Celltiter-Glo reagent based assay. It counts as functional. Particulars: MDA-MB-231, 96 h.
Turning to `CC1=C(C(C)C(=O)NCCN2CCNCC2)c2cc(F)ccc2/C1=C\c1ccc([S+](C)[O-])cc1` (centres undefined), the CC50 was greater than 50 µM.
`CC1=C(C(C)C(=O)NCCCN(C)C)c2cc(F)ccc2/C1=C\c1ccc([S+](C)[O-])cc1` (centres undefined) gave a CC50 greater than 50 µM.
Still for that read-out and setting: next, `CCN(CC)CCN(C)C(=O)C(C)C1=C(C)/C(=C/c2ccc([S+](C)[O-])cc2)c2ccc(F)cc21` (centres undefined): greater than 50 µM.
The compound `CCN(CCN(C)C)C(=O)C(C)C1=C(C)/C(=C/c2ccc([S+](C)[O-])cc2)c2ccc(F)cc21` (centres undefined) registered a cytotoxic concentration (CC50) of 32 µM.
Still for that read-out and setting: next, `CC1=C(C(C)C(=O)N(C)CCN(C)C(=O)[C@@H](N)C(C)C)c2cc(F)ccc2/C1=C\c1ccc([S+](C)[O-])cc1` (some centres undefined): 47.6 µM; `CC1=C(C(C)C(=O)N2CCN(c3ccncc3)CC2)c2cc(F)ccc2/C1=C\c1ccc([S+](C)[O-])cc1` (centres undefined): 19.6 µM; `CC1=C(C(C)C(=O)N2CCN(CCCN(C)C)CC2)c2cc(F)ccc2/C1=C\c1ccc([S+](C)[O-])cc1` (centres undefined): greater than 50 µM.
The same measure, in the same setting: the value for `COc1cc(/C=C2/C(C)=C(C(C)C(=O)NCc3ccco3)c3cc(F)ccc32)cc(OC)c1OC` (centres undefined) was 5.51 µM.
Still for that read-out and setting: next, `CCN1CCC[C@H]1CNC(=O)C(C)C1=C(C)/C(=C/c2ccc([S+](C)[O-])cc2)c2ccc(F)cc21` (some centres undefined): 24.9 µM; `CC1=C(C(C)C(=O)N(C)CCCN(C)C)c2cc(F)ccc2/C1=C\c1ccc([S+](C)[O-])cc1` (centres undefined): greater than 50 µM; `CCN(CC)CCN(CC)C(=O)C(C)C1=C(C)/C(=C/c2ccc([S+](C)[O-])cc2)c2ccc(F)cc21` (centres undefined): 23.5 µM.
`CC1=C(C(C)C(=O)N(CCCNC(C)C)C(C)C)c2cc(F)ccc2/C1=C\c1ccc([S+](C)[O-])cc1` (centres undefined) gave a cytotoxic concentration (CC50) of 23 µM.
In turn, `CC1=C(C(C)C(=O)N(C)CCN(C)C(=O)[C@@H]2CCCN2)c2cc(F)ccc2/C1=C\c1ccc([S+](C)[O-])cc1` (some centres undefined) displayed a CC50 greater than 50 µM.
`CCN(CC)CCNC(=O)C(C)C1=C(C)/C(=C/c2ccc([S+](C)[O-])cc2)c2ccc(F)cc21` (centres undefined) gave a cytotoxic concentration (CC50) of 36.6 µM.
The same measure, in the same setting: the value for `CC1=C(C(C)C(=O)N(CCNC(C)C)C(C)C)c2cc(F)ccc2/C1=C\c1ccc([S+](C)[O-])cc1` (centres undefined) was 21.3 µM; that for `CC1=C(C(C)C(=O)N2CCC(N3CCCCC3)CC2)c2cc(F)ccc2/C1=C\c1ccc([S+](C)[O-])cc1` (centres undefined) was greater than 50 µM.
On the same count and under the same terms, next, `CCNCCN(CC)C(=O)C(C)C1=C(C)/C(=C/c2ccc([S+](C)[O-])cc2)c2ccc(F)cc21` (centres undefined): 27.9 µM; `CSc1ccc(/C=C2/C(C)=C(C(C)C(=O)N(C)CCN(C)C(=O)C3CCCN3)c3cc(F)ccc32)cc1` (single isomer, unassigned): 3.99 µM.

A further assay concerns PC-3. As to the kind of experiment: Growth inhibition of human PC3 cells measured after 72 hrs by Celltiter-Glo reagent based assay. The settings on record: PC-3, 72 h. It counts as functional.
As for `CC1=C(C(C)C(=O)NCCN2CCNCC2)c2cc(F)ccc2/C1=C\c1ccc([S+](C)[O-])cc1` (centres undefined), the CC50 was greater than 50 µM.
In the case of `CC1=C(C(C)C(=O)NCCCN(C)C)c2cc(F)ccc2/C1=C\c1ccc([S+](C)[O-])cc1` (centres undefined), the cytotoxic concentration (CC50) is greater than 50 µM.
The compound `CCN(CC)CCN(C)C(=O)C(C)C1=C(C)/C(=C/c2ccc([S+](C)[O-])cc2)c2ccc(F)cc21` (centres undefined) returned a cytotoxic concentration (CC50) of 29.3 µM.
Take `CCN(CCN(C)C)C(=O)C(C)C1=C(C)/C(=C/c2ccc([S+](C)[O-])cc2)c2ccc(F)cc21` (centres undefined): the midpoint of cytotoxicity, the CC50, lay at 28.1 µM.
For the compound `CC1=C(C(C)C(=O)N(C)CCN(C)C(=O)[C@@H](N)C(C)C)c2cc(F)ccc2/C1=C\c1ccc([S+](C)[O-])cc1` (some centres undefined), the CC50 came to 28.8 µM.
Regarding `CC1=C(C(C)C(=O)N2CCN(c3ccncc3)CC2)c2cc(F)ccc2/C1=C\c1ccc([S+](C)[O-])cc1` (centres undefined), the midpoint of cytotoxicity, the CC50, lay at 10.5 µM.
The compound `CC1=C(C(C)C(=O)N2CCN(CCCN(C)C)CC2)c2cc(F)ccc2/C1=C\c1ccc([S+](C)[O-])cc1` (centres undefined) registered a cytotoxic concentration (CC50) greater than 50 µM.
Turning to `COc1cc(/C=C2/C(C)=C(C(C)C(=O)NCc3ccco3)c3cc(F)ccc32)cc(OC)c1OC` (centres undefined), the midpoint of cytotoxicity, the CC50, lay at 3.88 µM.
Same read-out and setting: the value for `CCN1CCC[C@H]1CNC(=O)C(C)C1=C(C)/C(=C/c2ccc([S+](C)[O-])cc2)c2ccc(F)cc21` (some centres undefined) was 41.5 µM; that for `CC1=C(C(C)C(=O)N(C)CCCN(C)C)c2cc(F)ccc2/C1=C\c1ccc([S+](C)[O-])cc1` (centres undefined) was greater than 50 µM.
`CCN(CC)CCN(CC)C(=O)C(C)C1=C(C)/C(=C/c2ccc([S+](C)[O-])cc2)c2ccc(F)cc21` (centres undefined) registered a 50% cytotoxic concentration (CC50) of 19.7 µM.
Compound `CC1=C(C(C)C(=O)N(CCCNC(C)C)C(C)C)c2cc(F)ccc2/C1=C\c1ccc([S+](C)[O-])cc1` (centres undefined) registered a CC50 of 15.7 µM.
The compound `CC1=C(C(C)C(=O)N(C)CCN(C)C(=O)[C@@H]2CCCN2)c2cc(F)ccc2/C1=C\c1ccc([S+](C)[O-])cc1` (some centres undefined) came in with a CC50 of 27.9 µM.
Regarding `CCN(CC)CCNC(=O)C(C)C1=C(C)/C(=C/c2ccc([S+](C)[O-])cc2)c2ccc(F)cc21` (centres undefined), the CC50 was found to be 40 µM.
For the compound `CC1=C(C(C)C(=O)N(CCNC(C)C)C(C)C)c2cc(F)ccc2/C1=C\c1ccc([S+](C)[O-])cc1` (centres undefined), half-maximal cytotoxicity (CC50) was put at 15.2 µM.
With `CC1=C(C(C)C(=O)N2CCC(N3CCCCC3)CC2)c2cc(F)ccc2/C1=C\c1ccc([S+](C)[O-])cc1` (centres undefined), the half-maximal cytotoxic concentration (CC50) is greater than 50 µM.
On the same count and under the same terms, the value for `CCNCCN(CC)C(=O)C(C)C1=C(C)/C(=C/c2ccc([S+](C)[O-])cc2)c2ccc(F)cc21` (centres undefined) was 26.3 µM; that for `CSc1ccc(/C=C2/C(C)=C(C(C)C(=O)N(C)CCN(C)C(=O)C3CCCN3)c3cc(F)ccc32)cc1` (single isomer, unassigned) was 5.21 µM.
